Earlier results as cited in patent EP3842031A1, “NEW THERAPEUTIC INHALATION SYSTEM PROVIDING REDUCED DOSE OF FLUTICASONE PROPIONATE AND SALMETEROL XINAFOATE WITH IMPROVED EFFICACY AND SAFETY PROFILE” (PRZEDSIEBIORSTWO FARMACEUTYCZNE LEK-AM SP Z O. O., priority 2019, dated 2021).

Legend:
[1] = in vivo
[2] = compared with beclomethasone dipropionate, control of chronic asthma

- oral bioavailability [1]: less than 1%
Compound: CCC(=O)O[C@]1(C(=O)SCF)[C@H](C)C[C@H]2[C@@H]3C[C@H](F)C4=CC(=O)C=C[C@]4(C)[C@@]3(F)[C@@H](O)C[C@@]21C [Fluticasone propionate]
- potency [2]: twice the potency of the beclomethasone dipropionate
